Where “and” joins values, the source holds several entries; their conditions need not be identical. Identical values can stand only once.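 Growth conditions: 96-well plates. Treatment: test compound, 48 hours, 5 concentrations. Analysis: linear interpolation between bracketing concentrations; unreached endpoints set to highest concentration. The concentration for 50% growth inhibition is given as GI50. At the TGI there is no net growth.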
What was measured:
Assay in all cases: NCI anticancer screen, dose series, 48 h
SK-OV-3 ovarian = system: SK-OV-3 ovarian
HCT-15 colon = system: HCT-15 colon
MDA-N = system: MDA-N
U251 CNS = system: U251 CNS
COLO 205 colon = system: COLO 205 colon
786-0 renal = system: 786-0 renal
DU-145 prostate = system: DU-145 prostate
BT-549 breast = system: BT-549 breast
SW-620 colon = system: SW-620 colon

SMILES	TGI (SK-OV-3 ovarian)	TGI (HCT-15 colon)	TGI (MDA-N)	TGI (U251 CNS)	TGI (COLO 205 colon)	TGI (786-0 renal)	TGI (DU-145 prostate)	TGI (BT-549 breast)	TGI (SW-620 colon)	GI50 (SK-OV-3 ovarian)	GI50 (HCT-15 colon)	GI50 (U251 CNS)	GI50 (COLO 205 colon)	GI50 (DU-145 prostate)	GI50 (BT-549 breast)	GI50 (SW-620 colon)
Cc1ccc(S(=O)(=O)N2CCN(S(=O)(=O)c3ccc(C)cc3)CCN(S(=O)(=O)c3ccc(C)cc3)Cc3cc(Br)c(Br)cc3CN(S(=O)(=O)c3ccc(C)cc3)CC2)cc1	> 100 µM	> 100 µM	> 100 µM	> 100 µM	> 100 µM	> 100 µM	> 100 µM	> 100 µM	> 100 µM							
COc1ccccc1C1c2cc3c(cc2OC(N2CCCC2)C1C)OCO3 (stereo unspecified)		44.6 µM	28.9 µM	39.1 µM	35.6 µM	35.3 µM	26.9 µM	48 µM	44.7 µM							
CCCCCCCCCCCCC(O)C(=O)O (stereo unspecified)	> 100 µM	> 100 µM	> 100 µM	> 100 µM	> 100 µM	> 100 µM	> 100 µM	> 100 µM	> 100 µM							
C/C(N)=N/OCc1nc(C)no1	> 100 µM	> 100 µM	> 100 µM	> 100 µM	> 100 µM	> 100 µM	> 100 µM	> 100 µM	> 100 µM							
c1ccc2c(-c3csc(-c4c[nH]c5ccccc45)n3)c[nH]c2c1	> 100 µM	> 100 µM	> 100 µM	> 100 µM		> 100 µM	> 100 µM	> 100 µM	> 100 µM							
COc1cc(C(=O)O)c(-c2cc3c(cc2C=O)OCO3)c(OC)c1OC	> 10 µM	> 10 µM	> 10 µM	> 10 µM	> 10 µM	> 10 µM	> 10 µM	> 10 µM	> 10 µM							
Cc1ccc(S(=O)(=O)NC(=O)Nc2cc(Cl)c(S(N)(=O)=O)cc2S(N)(=O)=O)cc1	> 100 µM	> 100 µM	> 100 µM	> 100 µM	> 100 µM	> 100 µM	> 100 µM	> 100 µM	> 100 µM							
O=[N+]([O-])/C=C/c1cn(CCCCCCCCCCCCn2cc(/C=C/[N+](=O)[O-])c3ccccc32)c2ccccc12	> 100 µM	> 100 µM	> 100 µM	> 100 µM	> 100 µM	> 100 µM	> 100 µM	> 100 µM	> 100 µM							
CC(=O)NCCCCN(CCCNC(C)=O)C(=O)OCc1ccccc1	> 100 µM	> 100 µM	> 100 µM	> 100 µM	> 100 µM	> 100 µM	> 100 µM	> 100 µM	> 100 µM							
c1cc(CN2CCNCCNCCNCC2)cc(CN2CCNCCNCCNCC2)c1	> 100 µM		> 100 µM	> 100 µM	> 100 µM	> 100 µM	> 100 µM	> 100 µM	> 100 µM							
c1n[nH]cc1C12C3C4C5C3C1C5C42 (stereo unspecified)	> 100 µM	> 100 µM	> 100 µM	> 100 µM	> 100 µM	> 100 µM	> 100 µM	> 100 µM	> 100 µM							
CC1SC(c2ccc(Cl)cc2)N(CCc2cccs2)C1=O (stereo unspecified)	5.79 µM	3.59 µM		3.18 µM	3.02 µM		4.87 µM	2.81 µM	3.22 µM	2.05 µM	1.56 µM	1.63 µM	1.63 µM	1.83 µM	1.49 µM	1.54 µM
C/C(=N\NC(=S)Nc1ccc([N+](=O)[O-])cc1)c1nc2ncccc2[nH]1	14.7 µM	9.04 µM	> 100 µM	1.84 µM	23.1 µM	11.6 µM	> 100 µM	2.35 µM	> 100 µM							
CCC(=O)C(CCN1CCC(N2C(=O)C(CCC#N)c3ccccc32)CC1)(c1ccccc1)c1ccccc1 (stereo unspecified)	37.9 µM	26 µM		27.8 µM	21.4 µM	24.7 µM	26.5 µM	26.2 µM	24 µM							
C[C@H]1C[C@H]2[C@@H]3CCC4=CC(=O)C=C[C@]4(C)C3=CC[C@]2(C)[C@@]1(O)C(=O)CO	> 100 µM	> 100 µM	> 100 µM	> 100 µM	> 100 µM	> 100 µM	> 100 µM									
COc1ccc(C(=O)Oc2c(C#N)sc3c2c(=O)n(-c2ccccc2)c(=S)n3-c2ccccc2)cc1	> 100 µM	46.3 µM		> 100 µM	80.4 µM	> 100 µM	> 100 µM		> 100 µM							
O=c1[nH]c2nc[nH]c2c(=O)n1C1CCCCC1	> 100 µM	> 100 µM	> 100 µM	> 100 µM	> 100 µM	> 100 µM	> 100 µM	> 100 µM	> 100 µM							
c1ccc(COC2C3COC(O3)C(OCc3ccccc3)C2OCc2ccccc2)cc1 (stereo unspecified)	> 100 µM	> 100 µM	> 100 µM	> 100 µM	> 100 µM	> 100 µM	> 100 µM	> 100 µM	> 100 µM							
CSc1c(C#N)c(S)n(-c2ccc(Cl)cc2)c(=O)c1C#N	> 100 µM	> 100 µM	> 100 µM	> 100 µM	> 100 µM	> 100 µM	> 100 µM	> 100 µM	> 100 µM							
O=C(O)Cc1cccc2c(=O)c3cccc([N+](=O)[O-])c3[nH]c12	> 100 µM	> 100 µM	> 100 µM	> 100 µM	39.4 µM	> 100 µM	> 100 µM	> 100 µM	> 100 µM							
O=C(/C=C(\Nc1ccccc1O)c1ccc(Br)cc1)C(Cl)(Cl)Cl	16 µM	25.9 µM	17.3 µM	15.4 µM	22.1 µM	27.6 µM	13.8 µM	28.5 µM	16.5 µM							
O=C(O)CCCc1ccccc1	> 1000 µM	342 µM and > 1000 µM	> 1000 µM	> 1000 µM	> 1000 µM		> 1000 µM	> 1000 µM	> 1000 µM	522 µM and > 1000 µM	> 1000 µM	292 µM and > 1000 µM	363 µM and > 1000 µM	> 1000 µM	242 µM and > 1000 µM	333 µM and > 1000 µM

Reference: PubChem BioAssay (NCI)
